The values below come from patent US12391674B2, “Heterocyclic compounds for the treatment of epilepsy” (OTSUKA PHARMACEUTICAL CO., LTD., priority 2018, dated 2025).

For data set [1], the system named is DBA/2 mice. The experiment in a line: Audiogenic seizure model. The class given is in vivo. Conditions: Mus musculus, DBA/2 mice, oral, auditory stimulation 1 hour after administration, read-out: Seizure suppression. The method in brief: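 Male and female DBA/2 mice (3 weeks old, 8/group) dosed orally at 30 mg/kg in 5% gum arabic; 1 h later exposed to 12.6 kHz, 100-110 dB tone for 1 min or until tonic seizure. Maximum seizure score (0–4) recorded; suppression rate graded A (≥90%), B (70–<90%), C (50–<70%).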

Data set [2] relates to ICR mice. Put plainly: Rotarod test (motor coordination). The class given is in vivo, mouse. Conditions: oral, rotarod 1 hour after administration. The method in brief: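 Motor coordination was assessed in male ICR mice (Japan SLC, Inc., 5-6 weeks old, 8 per group). Animals were first trained to stay for 2 minutes on a rotarod turning at a fixed 15 rpm. One hour after oral dosing, each mouse was placed on a rod accelerating from 4 rpm to 40 rpm over 5 minutes, and latency to fall was recorded for up to 200 seconds. Latencies were expressed relative to the mean of the solvent-treated group.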

As for `c1cncc(Oc2ncc(-c3ccc4nccn4c3)cn2)c1` [Example 294], in data set [1], the inhibition in vivo at 5 mg/kg is > 90%. The Motor dysfunction result in data set [2] (dose 5 mg/kg) is reported as “A (a coordination disorder of 25% or less)”.

`Nc1ccc(-c2cnc(Oc3ccccc3)nc2)nn1` [Example 30, 6-(2-Phenoxypyrimidin-5-Yl)Pyridazin-3-Amine]: the inhibition in vivo at 5 mg/kg in data set [1] is > 90%. The Motor dysfunction entry in data set [2] (dose 5 mg/kg) was “A (a coordination disorder of 25% or less)”.

For the compound `O=C1CCN(c2ccc(Cc3ccccc3)cc2)C(=O)N1` [Example 304], the inhibition in vivo at 30 mg/kg in data set [1] is > 90%. The Motor dysfunction entry in data set [2] (dose 30 mg/kg) is reported as “A (a coordination disorder of 25% or less)”.

With `FC(F)(F)c1cn2ccc(-c3cnc(Oc4ccccc4)nc3)cc2n1` [Example 216], the inhibition in vivo at 5 mg/kg in data set [1] was > 90%. For the same compound, in data set [2] (dose 5 mg/kg), the Motor dysfunction result is “A (a coordination disorder of 25% or less)”.

In the case of `Fc1ccccc1Oc1ncc(-c2ccc3nccn3c2)cn1` [Example 121], in data set [1], the inhibition in vivo at 5 mg/kg was > 90%. Moreover, the Motor dysfunction entry in data set [2] (dose 5 mg/kg) is on record as “A (a coordination disorder of 25% or less)”.

Regarding `COc1cccc(Oc2ccc(N3CCC(=O)NC3=O)cc2)c1` [Example 311], the inhibition in vivo at 30 mg/kg in data set [1] lay within 70 to 90%. Moreover, the Motor dysfunction entry in data set [2] (dose 30 mg/kg) is on record as “A (a coordination disorder of 25% or less)”.

Consider `COc1cccc(Oc2ncc(-c3ccc4nccn4c3)cn2)c1` [Example 162], for which the inhibition in vivo at 5 mg/kg in data set [1] is > 90%. Also, in data set [2] (dose 5 mg/kg), the Motor dysfunction entry was “A (a coordination disorder of 25% or less)”.

For `O=c1ccc(-c2cnc(Oc3ccc(F)cc3)nc2)n[nH]1` [Example 97], in data set [1] (dose 3 mg/kg), the inhibition in vivo at 3 mg/kg was > 90%. Further, the Motor dysfunction result in data set [2] (dose 3 mg/kg) is on record as “A (a coordination disorder of 25% or less)”.

For `c1ccc(Oc2ncc(-c3cccc4cnccc34)cn2)cc1` [Example 248], the inhibition in vivo at 5 mg/kg in data set [1] is > 90%. Besides, the Motor dysfunction entry in data set [2] (dose 5 mg/kg) is “A (a coordination disorder of 25% or less)”.

`c1ccc(Oc2ncc(-c3ccc4nccn4c3)cn2)cc1` [Example 119, 6-(2-Phenoxypyrimidin-5-Yl) Imidazo[1,2-a]Pyridine]: the inhibition in vivo at 5 mg/kg in data set [1] is > 90%. The Motor dysfunction entry in data set [2] (dose 5 mg/kg) is recorded as “A (a coordination disorder of 25% or less)”.

`CCC1CC(=O)NC(=O)N1c1ccc(Oc2ccccc2)cc1` (centres unmarked) [Example 343, 6-Ethyl-1-(4-Phenoxyphenyl)Dihydropyrimidine-2,4 (1H,3H)-Dione]: the inhibition in vivo at 30 mg/kg in data set [1] was > 90%. In addition, the Motor dysfunction result in data set [2] (dose 30 mg/kg) was “A (a coordination disorder of 25% or less)”.

Consider `c1ccc(Oc2ncc(-c3ccn4cnnc4c3)cn2)cc1` [Example 211], for which the inhibition in vivo at 30 mg/kg in data set [1] is > 90%. The Motor dysfunction entry in data set [2] (dose 30 mg/kg) was “B (a coordination disorder of more than 25% and 50% or less)”.

Regarding `COc1ccc(-c2cnc(Oc3ccccc3)nc2)nn1` [Example 1, 3-Methoxy-6-(2-Phenoxypyrimidin-5-Yl)Pyridazine], the inhibition in vivo at 5 mg/kg in data set [1] is > 90%. Further, the Motor dysfunction entry in data set [2] (dose 5 mg/kg) is listed as “A (a coordination disorder of 25% or less)”.

Turning to `c1ccc(Oc2ncc(-c3ccnc4ccccc34)cn2)cc1` [Example 118, 4-(2-Phenoxypyrimidin-5-Yl) Quinoline], the inhibition in vivo at 5 mg/kg in data set [1] was in the range of 70 to 90%. Further, in data set [2] (dose 5 mg/kg), the Motor dysfunction entry was “A (a coordination disorder of 25% or less)”.

Consider `O=C1CCCCN1c1cnc(Oc2cccc(F)c2)nc1` [Example 222], for which, in data set [1], the inhibition in vivo at 30 mg/kg was > 90%. For the same compound, in data set [2] (dose 30 mg/kg), the Motor dysfunction result was “A (a coordination disorder of 25% or less)”.

For the compound `c1ccc(Oc2ncc(-c3ccc4[nH]cnc4c3)cn2)cc1` [Example 258], the inhibition in vivo at 5 mg/kg in data set [1] is > 90%. In data set [2] (dose 5 mg/kg), the Motor dysfunction entry was “A (a coordination disorder of 25% or less)”.

Regarding `O=c1ccc(-c2cnc(Oc3cccnc3)nc2)n[nH]1` [Example 113], the inhibition in vivo at 10 mg/kg in data set [1] (dose 10 mg/kg) was > 90%. Moreover, the Motor dysfunction result in data set [2] (dose 10 mg/kg) is “A (a coordination disorder of 25% or less)”.

Regarding `O=C1CCN(c2ccc(Oc3ccccc3)nn2)C(=O)N1` [Example 347, 1-(6-Phenoxypyridazin-3-Yl)Dihydropyrimidine-2,4 (1H,3H)-Dione], in data set [1], the inhibition in vivo at 30 mg/kg was > 90%. In data set [2] (dose 30 mg/kg), the Motor dysfunction result was “A (a coordination disorder of 25% or less)”.

Turning to `c1ccc(Oc2ncc(N3CCCCC3)cn2)cc1` [Example 223, 2-Phenoxy-5-(Piperidine-1-Yl)Pyrimidine], in data set [1], the inhibition in vivo at 30 mg/kg was > 90%. Also, the Motor dysfunction entry in data set [2] (dose 30 mg/kg) is “A (a coordination disorder of 25% or less)”.

`O=C1NCCCN1c1cnc(Oc2ccccc2)nc1` [Example 220, 1-(2-Phenoxypyrimidin-5-Yl)Tetrahydropyrimidin-2 (1H)-One]: the inhibition in vivo at 30 mg/kg in data set [1] is > 90%. The Motor dysfunction result in data set [2] (dose 30 mg/kg) is reported as “A (a coordination disorder of 25% or less)”.

Turning to `c1ccc(Oc2ncc(N3CCOCC3)cn2)cc1` [Example 224], the inhibition in vivo at 30 mg/kg in data set [1] was > 90%. In data set [2] (dose 30 mg/kg), the Motor dysfunction entry is given as “A (a coordination disorder of 25% or less)”.

In the case of `Nc1ccc(-c2cnc(Oc3cccnc3)nc2)cn1` [Example 90], the inhibition in vivo at 5 mg/kg in data set [1] fell in the range of 70 to 90%. For the same compound, the Motor dysfunction result in data set [2] (dose 5 mg/kg) is “A (a coordination disorder of 25% or less)”.
